In a melting point compilation (Tetko et al.; mined from patent text by program, amines drawn as free bases though some values may be those of a salt) one finds melting point data, which are given here for 88 compounds.

Residues, ends and D or L forms follow the SMILES beside them. *: point of attachment. Cbz = O=C(OCc1ccccc1)*

One may read the melting point as the temperature of the solid-liquid transition. `Nc1cc(N)cc(O)c1` registered a melting point of 168 to 170 °C.
In the case of `Clc1ccccc1C(c1ccc(-c2ccccc2)cc1)n1ccnc1` (stereo not drawn) it was 90 °C.
In the case of `C/C(=C\c1ccc(C(=O)O)cc1)c1ccc2c(c1)OCCO2` it was 172 to 173 °C; in that of `CC(C)c1ccc2c(c1)C=C(C(=O)O)CC2`, 160 to 162 °C; in that of `COc1ccccc1-n1c(-c2cc(-c3ccc(S(C)(=O)=O)cc3)c(N3CCOCC3)s2)nc2ccccc2c1=O`, 222 to 223 °C.
For the compound `CC(C)CON(Cc1ccc(F)cc1)C(=O)C1=C(O)C(=O)N(C)C1`, the melting point was in the range of 96 to 97 °C.
In the case of `Cc1cccc([N+](=O)[O-])c1CNc1cccn2c(C)c(C)nc12` it was 160 to 162 °C.
The compound `Cc1ccc(-n2nc(C#N)cc2-c2ccc(S(C)(=O)=O)cc2)cc1F` displayed a melting point of 167 to 168 °C.
In the case of `CCOC(=O)C(C#N)C1NC(=O)c2sccc2-n2cccc21` (stereo not drawn) it was 195 °C.
For `CCN1C(=O)C(C(=O)Nc2cccc(C(=O)Nc3ccc(I)cc3)c2)c2cc(C(C)=O)ccc21` (stereo not drawn) the value was 205 to 210 °C; for `N#Cc1ccc2c(c1)OC(=O)C(Br)C2Br` (stereo not drawn), 220 to 230 °C; for `Cn1c(SCSC#N)nc2ccccc2c1=O`, 118 to 121 °C.
For `COC(=O)CCCNC(=O)C(COS(C)(=O)=O)NS(=O)(=O)c1ccc(Cl)cc1` (racemic) the value was 95 to 99 °C; for `CN(C)CCCC(C(=O)O)c1ccccc1-c1ccccc1` (stereo not drawn), 192 to 194 °C; for `O=S(Cc1cc(OCc2ccc(C(F)(F)F)cc2)ccn1)c1nc2cscc2[nH]1` (stereo not drawn), 149 °C.
Take `O=C1Cc2cc3c(CCC4CCN(Cc5ccccc5)CC4)noc3cc2N1`: the melting point lay within 118 to 119 °C.
In the case of `C=CCN1C(=O)C(C)N(c2ccc(Oc3ccccc3)cc2)C1=S` (stereo not drawn) it was 77 °C; in that of `O=C(O)CSCc1cccc(NC(=O)c2cc(-c3ccccc3)oc2C(F)(F)F)c1`, 178 to 182 °C.
The compound `CCCCCC/C=C(\C(=O)Nc1ccc(C(=O)O)cc1)c1ccc2c(c1)C(C)(C)CCC2(C)C` had a melting point of 183 to 184 °C.
For `CCCCCCCCCCCCCCc1c[nH]c(C(=O)OC)c1` the value was 80 to 82 °C; for `C=CCn1c(=O)n(-c2ccc3c(c2)OCO3)c2ncccc21`, 100 °C.
For `CC(C)(C)c1ccc(C(C)(C)C(=O)Oc2ccc(SCCCC(=O)O)cc2)cc1` the value was 86 to 87 °C; for `COc1ccc(C#CCCCCOc2ccc(C(=O)c3cccc(C(=O)O)c3)cc2CCC(=O)O)cc1`, 144 to 146 °C; for `CN1CCc2nc3cc(Cl)ccc3c(Nc3ccccc3)c2C1`, 197 to 198 °C.
In the case of `CCC(=NOC)C1=C(O)CC(c2ccc(NS(C)(=O)=O)cc2)CC1=O` (stereo not drawn) it was 150 to 151 °C; in that of `Cc1ccc(C2(CCC(=O)O)NC(=O)NC2=O)cc1Cl` (stereo not drawn), 196 to 199 °C; in that of `CN(CCN(C)c1ccc([N+](=O)[O-])cc1)c1ccncc1`, 126 to 127 °C.
Take `O=C(NNc1ccc(NC(=S)Nc2ccc(NNC(=O)c3ccccc3)cc2)cc1)c1ccccc1`: the melting point fell in the range of 185 to 187 °C.
For `CCOC(=O)c1ccc(COCc2csc3nc(C(=O)NCc4cccc(SC)c4)[nH]c(=O)c23)cc1` the value was 207 to 209 °C; for `COc1cc(OC)nc(Sc2[nH]nc(C)c2[N+](=O)[O-])n1`, 175 to 176 °C.
In the case of `CCn1c(=O)oc2ccc(Cl)cc21` it was 75 to 78 °C; in that of `COC(=O)C=Cc1ccc(OC)cc1`, 85 to 86 °C.
In the case of `O=c1[nH]nc(-c2cccc(C(F)(F)F)c2)c2ncccc12` it was 210 to 215 °C; in that of `CCCNC1=NS(=O)(=O)c2cc([N+](=O)[O-])ccc2N1`, 268 to 270 °C; in that of `O=C(O)CCS(=O)(=O)O`, 74.6 °C.
For the compound `O=C1N(Cc2ccc(C(F)(F)F)o2)c2ccccc2C1(O)c1nc2c(cc1O)OCO2` (stereo not drawn), the melting point is over 250 °C.
For `c1ccc(COc2ccc(N3c4ccccc4Sc4ccccc43)cc2)cc1`, the melting point lay within 144 to 146 °C.
Compound `CC(C)C1CC(=O)C(=C2CCCN2)C(=O)C1` (stereo not drawn) yielded a melting point of 143 to 145 °C.
Turning to `COc1ccc(C(C)C)cc1-c1cc(-c2nnnn2C2CCN(C(=O)OC(C)(C)C)C2)c(O)cc1O` (stereo not drawn), the melting point was 100 to 104 °C.
For `CC(C)(C)COc1ccc(NC(=O)c2cnn(-c3ccc(F)cc3)c2)cc1C#N` the value was 196 to 197 °C.
`O=C1NC(=O)c2c1c(-c1ccc(CO)cc1)cc1[nH]c3ccc(O)cc3c21` yielded a melting point of 266 to 271 °C.
In the case of `Nc1nc2c(sc(=O)n2C2OC(COC(=O)c3ccccc3)C(OC(=O)c3ccccc3)C2F)c(=O)[nH]1` (stereo not drawn) it was 282 to 284 °C; in that of `Cc1oc(-c2ccccc2)nc1CCC(=O)c1ccc(C=C2SC(=O)NC2=O)nc1`, 228 to 230 °C; in that of `CC(Oc1ccc(-n2cnc3cc(C(F)(F)F)ccc32)cc1)C(=O)O` (stereo not drawn), 181 to 182 °C.
Consider `O=C1Cc2c([nH]c3ccc(I)cc23)-c2ncccc2N1`, for which the melting point was over 330 °C.
The compound `Cc1nc2cc3c(cc2s1)C1(CO3)C(=O)N(CCC(C)C)c2ccccc21` (stereo not drawn) displayed a melting point of 137 to 138 °C.
Turning to `CN1CC(CN2CC(=O)NC2=O)CC2c3cccc4[nH]cc(c34)CC21` (stereo not drawn), the melting point was in the range of 199 to 201 °C.
For `O=C(O)c1ccc2c(c1)Sc1cc3c(cc1C=C2)CCC3` the value was 103 to 104 °C; for `C=CC(=O)N1CCc2cc(OC)c(OC)cc2C12CCC(C(=O)OCC)(C(=O)OCC)CC2C1c2cc(OC)c(OC)cc2CCN1CC` (stereo not drawn), 150 to 151 °C.
For `CC(=N)Nc1cccc(F)c1` the value was 175 to 177 °C; for `CC1C=C2CCCCCCCCCC=C2C1` (stereo not drawn), 98 to 103 °C; for `Cc1cccc(OC2SCC(O)C(O)C2O)n1` (stereo not drawn), 54 °C.
`Cc1ccc(C2(O)C(c3ccccc3)SC3=NCCCCN32)s1` (stereo not drawn) registered a melting point of 70 to 90 °C.
For `CCNc1ccc2c(c1)CN(c1cc3c(cc1F)c(=O)c(C(=O)O)cn3CC)C2` the value was 246 to 248 °C.
`COC(=O)C(Cc1ccc(O)cc1)NC(=O)C(CO)NC(=O)C(Cc1c[nH]c2ccccc12)NC(=O)C(CCC(N)=O)NC(=O)OCc1ccccc1` (stereo not drawn) (Cbz-QWSY-OMe; configuration not given here) had a melting point of 238 to 241 °C.
On to `O=C(c1nc2ccc(O)cc2[nH]1)N1CCC(=Cc2ccc(F)cc2)CC1`, for which the melting point lay in the range of 105 to 106 °C.
For the compound `CC1(C)CC2(CC(C)(C)N1c1nc(N(CCO)CCO)nc(N3CCOCC3)n1)OCCO2`, the melting point was 135 to 140 °C.
In the case of `CS(=O)(=O)Nc1cc(NS(C)(=O)=O)cc([N+](=O)[O-])c1` it was 223 to 224 °C.
For `Cc1cc(Cl)cc2c1OCC(/C=C/C=C/C=C/C(=O)O)=C2` the value was 208 to 210 °C.
For the compound `O=C(OC(c1ccccc1)c1ccccc1)C(NC=S)c1ccccc1` (stereo not drawn), the melting point lay in the range of 129 to 130 °C.
In the case of `COCC1CN(c2ccc(OCCC(C)O)cc2)C(=O)O1` (stereo not drawn) it was 58 °C.
Compound `Cn1cc(CC#N)c2cc([N+](=O)[O-])ccc21` registered a melting point of 165 to 166 °C.
`CCOC(=O)COc1ccc(C(=O)Nc2ccccc2S(=O)(=O)c2ccccc2C#N)cc1` registered a melting point of 131 to 132 °C.
For `CCOC(=O)c1c(-c2ccccc2Cl)c2cc(CC)ccc2n(C)c1=O` the value was 125 to 126 °C; for `C=CCC1(CC)C(=O)NC(=O)NC1=O`, 157 to 159 °C.
For `Cc1cc(Br)cnc1C#N` the value was 86 to 88 °C.
For `CC(=O)C1CCC2C3CCC4CC(O)C(N5CCOC(C)(C)C5)CC4(C)C3CCC12C` (stereo not drawn) the value was 174 to 176 °C.
`Cc1c(S(=O)(=O)Nc2ccc3[nH]cc(CCN(C)C)c3c2)sc2ccc(Cl)cc12` showed a melting point of 226 to 227 °C.
In the case of `C=C(C)n1c(=O)n(CCN2CCC(N(C)C(=O)c3ccccc3)CC2)c2ccccc21` it was 120 to 122 °C; in that of `CCOCc1nc2c(Cl)nc3ccccc3c2n1Cc1cc(-c2ccc(F)cc2)no1`, 189 to 190 °C.
For `CC(C)(CO)c1ccc2c(c1)OC(C(F)(F)F)C(C(=O)O)=C2` (stereo not drawn) the value was 229 to 230 °C; for `c1cc(-c2n[nH]c3c2Cc2ccc(CN4CCNCC4)cc2-3)cs1`, 125 to 130 °C.
Compound `CC(C)(C)NCC(O)COc1ccc2c(c1-c1nc(C(F)(F)F)c[nH]1)CCCC2` (stereo not drawn) returned a melting point of 203 to 205 °C.
Consider `COC(=O)c1cc([N+](=O)[O-])c(Cl)c([N+](=O)[O-])c1`, for which the melting point lay within 104 to 106 °C.
For `CC(C)NCC(O)c1ccccc1` (stereo not drawn) the value was 90 °C; for `Cc1nc(-c2nn(Cc3ccccc3)c3ccccc23)oc1CO`, 127 to 129 °C; for `COC(NC(C)=O)(C(=O)OC(C)(C)C)C(Br)Br` (stereo not drawn), 115 to 116 °C.
In turn, `N#Cc1ccc(OCC(O)CN2CC3CC(C2)CN(C(=O)OCCCl)C3)cc1` (stereo not drawn) gave a melting point of 104 to 105 °C.
`Cc1cc(C#N)sc1-c1ccc2c(c1)C(C)(C)OC(=O)N2` returned a melting point of 195 to 200 °C.
`CCCCN=C(O)c1c(Cl)c(Cl)c(Sc2ccccc2)c(Cl)c1C(=O)O` displayed a melting point of 159 to 163 °C.
In the case of `COc1ccc2c(c1)C(=O)C(Cc1cccc(NS(=O)(=O)C(F)(F)F)c1)CO2` (stereo not drawn) it was 114 to 116 °C; in that of `Cc1nc(-c2ccc(C(F)(F)F)cc2)oc1COc1ccc(CC(=O)O)cc1Cl`, 189 to 191 °C; in that of `COc1ccc(N=C2C=CC(=O)C=C2)c(CO)c1`, 87 to 89 °C.
`COc1cc(C)c(C(=O)c2c(OC)ccc(Br)c2Cl)c(OC)c1OC` gave a melting point of 87 to 88 °C.
In the case of `COc1cc(-c2nc(-n3cncn3)c3c(C)c(C#N)sc3n2)cc(OC)c1OC` it was 236 to 240 °C; in that of `O=C1c2ccccc2C(=O)N1c1cccc(Br)c1`, 176 to 179 °C; in that of `O=c1[nH]c2ccccc2c2c(CCO)n(-c3ccccc3)nc12`, 310 to 312 °C.
Compound `CC(C)CC(NC(=O)Cc1ccc(NC(=O)Nc2ccccc2F)cc1)c1ncc(CCC(=O)O)s1` (stereo not drawn) returned a melting point of 83 to 85 °C.
